{
  "source": "patent US20050255537A1",
  "about": "“Method for monitoring treatment with a parathyroid hormone” (priority 1999, published 2005)",
  "system": "BSAP and PICP serum levels, NTX urine levels",
  "experiment": "Example 3 clinical trial of rhPTH(1-34) vs alendronate: bone markers",
  "assay_type": "in vivo, human",
  "conditions": "alendronate 10 mg per day",
  "method": "• Number of Subjects: • rhPTH(1-34): 73 enrolled, 51 finished. • Alendronate (Fosamax®): 73 enrolled, 57 finished. • Diagnosis and Inclusion Criteria: Women aged 65±8 years, postmenopausal for 19±19 years, selected for a baseline spine bone mineral density of 0.8±0.1 and a T value of −2.2. Dosage and Administration: • Test Product (blinded) • rhPTH(1-34): 40 μg/day, given subcutaneously • Reference (Control) Therapy (blinded) • Alendronate (Fosamax®): 10 mg per patient per day • Duration of Treatment: • rhPTH(1-34): 12-18 months, with follow up from time of withdrawal of drug to 18 months of study. • Alendronate: 12-18 months, with follow up from time of withdrawal of drug to 18 months of study. • Criteria for Evaluation: Spine x-ray, serum biological markers (calcium, bone-specific alkaline phosphatase, procollagen I carboxy-terminal propeptide); urine makers (calcium, N-telopeptide, fir deoxypyridinoline); 1,25-dihydroxyvitamin D; bone mineral density spine, hip, wrist, and total body.\nMeasures of BSAP, PICP, and NTX levels were determined for each patient through the course of therapy generally according to methods described above in Example 1.",
  "data": [
    {"smiles": "NCCCC(O)(P(=O)(O)O)P(=O)(O)O", "note": "[alendronate, reference compound]", "values": [
      {"measurement": "PICP serum level", "setting": "FIG. 8", "value": "a decrease in PICP was observed"},
      {"measurement": "NTX urine levels", "setting": "FIG. 9", "value": "generally declined slightly during the first 6 months of the study and then remained diminished for the duration of the study"},
      {"measurement": "BSAP serum level", "setting": "after about 4 months, FIG. 7", "value": "A decrease in BSAP level was observed"}
    ]}
  ]
}
